From PMC11013038, “Design, Synthesis, and Evaluation of B-(Trifluoromethyl)phenyl Phosphine–Borane Derivatives as Novel Progesterone Receptor Antagonists” (Molecules, 2024)

Assays:
[1] = LogP (1-octanol/water partition coefficient) determined using HPLC; assay type: physicochemical
Procedure: Hydrophobicity is a key determinant of the activity and pharmacokinetics of biologically active compounds, and the octanol–water partition coefficient (P) and logarithm value (LogP) are widely used hydrophobicity parameters. The LogP values of the synthesized compounds were determined using HPLC [45, 46]. Table 1 summarizes the experimentally determined LogP values and calculated values. […] From the viewpoint of the phosphine structure, an increase in the number of carbon atoms increased hydrophobicity in a predictable manner.
The 1-octanol/water partition coefficient P was determined using HPLC based on the OECD Guideline for Testing Chemicals. A COSMOSIL Packed Column 5C18-MS-II (5 μm, 150 mm × 4.6 mm id, Nacalai Tesque, Inc., Kyoto, Japan) was fitted on an HPLC instrument (Multiwavelength Detector, MD-2010 Plus. JASCO, Tokyo, Japan) equipped with a pump (PU-2080, JASCO) and an oven (SSC-2120, Senshu Scientific Co., Ltd., Tokyo, Japan). The injection volume was 20 µL; the mobile phase was methanol–water 75% (v/v); and the flow rate was 1.0 mL/min in all cases. Compounds were detected by measuring the UV absorption at 240 nm. The temperature of the column was kept at 40.0 (± 0.1) °C during the measurement. The measurement was performed in triplicate, and the mean value was calculated. The dead time t0 was measured with thiourea as the unretained compound, and the capacity factor k was calculated using the equation logk = log (tr − t0/t0), where tr represents the retention time of the compound. A calibration graph was determined experimentally using reference compounds (4-methylphenol, 4-chlorophenol, 4-phenylphenol, diphenylether, fluoranthene, and dichlorodiphenyltrichloroethane) with known logP values. The LogP values of phosphine–boranes were calculated based on a calibration graph (LogP = 2.6269 logkw + 3.059, R^2 = 0.9915).

[2] = molecular target: T1, progesterone receptor (PR) (Homo sapiens, UniProt P06401); test: T47D alkaline phosphatase assay, PR antagonistic activity in the presence of 1 nM P4; assay type: cell-based; conditions: T47D cells; for IC50: 1.0 nM P4, 48 h, mean ± SD from three independent experiments; for PR antagonistic activity (in words): in the presence of 1 nM P4
T1 construct: alkaline phosphatase assay with the T47D human breast cancer cell line; endogenous in cells; host or cells: T47D
T1 sequence (P06401 1-933): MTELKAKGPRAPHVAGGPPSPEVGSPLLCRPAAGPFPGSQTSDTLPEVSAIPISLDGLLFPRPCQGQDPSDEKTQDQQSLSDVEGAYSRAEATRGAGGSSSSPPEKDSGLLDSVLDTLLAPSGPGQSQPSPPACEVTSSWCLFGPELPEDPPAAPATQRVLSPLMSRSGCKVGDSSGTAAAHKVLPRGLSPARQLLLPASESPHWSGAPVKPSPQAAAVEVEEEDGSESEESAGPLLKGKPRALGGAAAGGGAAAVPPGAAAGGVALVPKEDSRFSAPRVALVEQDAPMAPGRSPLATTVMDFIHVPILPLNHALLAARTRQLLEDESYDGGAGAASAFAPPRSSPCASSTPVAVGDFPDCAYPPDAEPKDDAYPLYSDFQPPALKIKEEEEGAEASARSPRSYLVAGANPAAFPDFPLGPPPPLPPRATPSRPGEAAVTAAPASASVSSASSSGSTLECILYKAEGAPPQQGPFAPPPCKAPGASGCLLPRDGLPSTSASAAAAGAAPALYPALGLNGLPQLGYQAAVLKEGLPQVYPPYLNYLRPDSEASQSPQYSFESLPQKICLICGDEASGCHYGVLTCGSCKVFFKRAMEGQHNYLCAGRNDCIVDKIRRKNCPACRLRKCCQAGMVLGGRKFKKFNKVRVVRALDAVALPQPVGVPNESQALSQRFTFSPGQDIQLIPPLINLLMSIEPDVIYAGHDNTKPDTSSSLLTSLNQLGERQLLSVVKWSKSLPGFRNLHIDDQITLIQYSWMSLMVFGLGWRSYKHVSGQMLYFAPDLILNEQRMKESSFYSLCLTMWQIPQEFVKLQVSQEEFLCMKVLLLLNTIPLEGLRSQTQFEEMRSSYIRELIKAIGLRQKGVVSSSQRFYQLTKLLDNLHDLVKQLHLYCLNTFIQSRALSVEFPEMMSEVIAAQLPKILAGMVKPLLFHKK
Procedure: The PR agonistic and antagonistic activities of the synthesized phosphine–borane derivatives were evaluated using an alkaline phosphatase assay with the T47D human breast cancer cell line. […] The basal alkaline phosphatase activity was also not affected by the tested compounds alone. […] The PR antagonistic activities of the compounds were assessed in the presence of 1 nM of P4 (5). We also calculated the molecular volume of each compound to investigate the structure–activity relationship (SAR). Table 2 summarizes the PR antagonistic activity and calculated volumes of the synthesized compounds. […] We investigated the binding affinity of the compounds toward the PR ligand-binding domain (LBD) using a fluorescence polarization assay system. […] We also investigated the activity of compounds 28 and 34 toward the androgen receptor (AR) by means of cell-proliferation promoting/inhibitory activity toward androgen-dependent SC-3 cells. […].
T47D alkaline phosphatase assays were performed as previously described, with minor modifications. Briefly, the human breast cancer cell line T47D (HMS LINCS database Accession Numbers: 50541) was routinely cultivated in RPMI 1640 medium with 10% FBS at 37 °C in a 5% CO2 humidified incubator. The cells were plated in 96-well plates and incubated overnight in a 5% CO2 humidified incubator at 37 °C. The next day, the cells were treated with a fresh medium containing the test compound in the presence of 1 nM of progesterone and further incubated for 48 h. The medium was aspirated, and the cells were fixed with 100 μL of 1.8% formalin–PBS. The fixed cells were washed with PBS, and 100 μL of an assay buffer (1 mg/mL p-nitrophenol phosphate in diethanolamine water solution, pH 9.0) was added. The mixture was incubated at room temperature for 2 h under light-shielded conditions. The absorbance was measured at 405 nm using a DTX 880 Multimode Detector (Beckman Coulter, Brea, CA, USA). All data points were measured in triplicate, and IC50 values were calculated from three independent experiments.

[3] = HPLC (OECD guideline), C18 column, methanol–water 75% (v/v), 40 °C, mean of triplicate
[4] = HPLC, tentative value: hydrophobicity beyond the range of the reference compounds (1.9 < LogP < 6.5)

Structure (SMILES): C[P+](C)(C)[BH2-]c1cccc(C(F)(F)F)c1 [Compound 16, B-3-(Trifluoromethyl)phenyl Trimethylphosphine–Borane]
- chromatographic logP [1, 3]: 3.65
- IC50 [2]: > 10000 nM
- PR antagonistic activity (in words) [2]: only weak potency

Structure (SMILES): C[P+](C)([BH2-]c1cccc(C(F)(F)F)c1)c1ccccc1 [Compound 17, B-(3-Trifluoromethyl)phenyl Dimethyl(phenyl)phosphine–Borane]
- chromatographic logP [1, 3]: 4.54
- IC50 [2]: 1160 ± 600 nM
- PR antagonistic activity (in words) [2]: potent activities
- melting point: 75 to 75.8 °C

Structure (SMILES): CC[P+]([BH2-]c1cccc(C(F)(F)F)c1)(CC)CC [Compound 18, B-3-(Trifluoromethyl)phenyl Triethylphosphine–Borane]
- chromatographic logP [1, 3]: 4.88
- IC50 [2]: 3670 ± 3340 nM
- PR antagonistic activity (in words) [2]: moderate PR antagonistic activity

Structure (SMILES): CC[P+]([BH2-]c1cccc(C(F)(F)F)c1)(CC)c1ccccc1 [Compound 19, B-3-(Trifluoromethyl)phenyl Diethyl(phenyl)phosphine–Borane]
- chromatographic logP [1, 3]: 5.24
- IC50 [2]: 1120 ± 220 nM
- PR antagonistic activity (in words) [2]: potent activities
- melting point: 40 to 40.5 °C

Structure (SMILES): CC(C)[P+]([BH2-]c1cccc(C(F)(F)F)c1)(C(C)C)C(C)C [Compound 20, B-3-(Trifluoromethyl)phenyl Triisopropylphosphine–Borane]
- chromatographic logP [1, 3]: 5.89
- IC50 [2]: 1350 ± 470 nM
- PR antagonistic activity (in words) [2]: potent activities

Structure (SMILES): CC(C)[P+]([BH2-]c1cccc(C(F)(F)F)c1)(c1ccccc1)C(C)C [Compound 21, B-3-(Trifluoromethyl)phenyl Diisopropyl(phenyl)phosphine–Borane]
- chromatographic logP [1, 3]: 5.93
- IC50 [2]: 3350 ± 1490 nM
- PR antagonistic activity (in words) [2]: moderate PR antagonistic activity
- melting point: 118.7 to 119.1 °C

Structure (SMILES): FC(F)(F)c1cccc([BH2-][P+](C2CC2)(C2CC2)C2CC2)c1 [Compound 22, B-3-(Trifluoromethyl)phenyl Tricyclopropylphosphine–Borane]
- chromatographic logP [1, 3]: 5.21
- IC50 [2]: 650 ± 170 nM
- PR antagonistic activity (in words) [2]: potent activities

Structure (SMILES): CCCC[P+]([BH2-]c1cccc(C(F)(F)F)c1)(CCCC)CCCC [Compound 23, B-3-(Trifluoromethyl)phenyl Tri-n-Butylphosphine–Borane]
- chromatographic logP [1, 4]: 7.34
- IC50 [2]: > 10000 nM
- PR antagonistic activity (in words) [2]: only weak potency

Structure (SMILES): FC(F)(F)c1cccc([BH2-][P+](C2CCCC2)(C2CCCC2)C2CCCC2)c1 [Compound 24, B-3-(Trifluoromethyl)phenyl Tricyclopentylphosphine–Borane]
- chromatographic logP [1, 4]: 7.84
- IC50 [2]: 6640 ± 870 nM
- PR antagonistic activity (in words) [2]: moderate PR antagonistic activity

Structure (SMILES): FC(F)(F)c1cccc([BH2-][P+](C2CCCCC2)(C2CCCCC2)C2CCCCC2)c1 [Compound 25, B-3-(Trifluoromethyl)phenyl Tricyclohexylphosphine–Borane]
- chromatographic logP [1, 4]: 8.69
- IC50 [2]: > 10000 nM
- PR antagonistic activity (in words) [2]: only weak potency
- melting point: 100 to 100.5 °C

Structure (SMILES): FC(F)(F)c1cccc([BH2-][PH+](C2CCCCC2)C2CCCCC2)c1 [Compound 26, B-3-(Trifluoromethyl)phenyl Dicyclohexylphosphine–Borane]
- chromatographic logP [1, 4]: 7.28

Structure (SMILES): CN(C)[P+]([BH2-]c1cccc(C(F)(F)F)c1)(N(C)C)N(C)C [Compound 27, B-3-(Trifluoromethyl)phenyl Tris(dimethylamino)phosphine–Borane]
- chromatographic logP [1, 3]: 5.39
- IC50 [2]: 1200 ± 630 nM
- PR antagonistic activity (in words) [2]: potent activities

Structure (SMILES): C[P+](C)([BH2-]c1ccc(C(F)(F)F)cc1)c1ccccc1 [Compound 29, B-4-(Trifluoromethyl)phenyl Dimethyl(phenyl)phosphine–Borane]
- chromatographic logP [1, 3]: 4.65
- IC50 [2]: 1610 ± 870 nM
- melting point: 78 to 78.3 °C

Structure (SMILES): CC[P+]([BH2-]c1ccc(C(F)(F)F)cc1)(CC)CC [Compound 30, B-4-(Trifluoromethyl)phenyl Triethylphosphine–Borane]
- chromatographic logP [1, 3]: 4.99
- IC50 [2]: 1760 ± 1440 nM

Structure (SMILES): CC[P+]([BH2-]c1ccc(C(F)(F)F)cc1)(CC)c1ccccc1 [Compound 31, B-4-(Trifluoromethyl)phenyl Diethyl(phenyl)phosphine–Borane]
- chromatographic logP [1, 3]: 5.41
- IC50 [2]: 1780 ± 970 nM
- melting point: 62 to 62.3 °C

Structure (SMILES): CC(C)[P+]([BH2-]c1ccc(C(F)(F)F)cc1)(C(C)C)C(C)C [Compound 32, B-4-(Trifluoromethyl)phenyl Triisopropylphosphine–Borane]
- chromatographic logP [1, 3]: 6.06
- IC50 [2]: 1510 ± 530 nM
- melting point: 59 to 59.4 °C

Structure (SMILES): CC(C)[P+]([BH2-]c1ccc(C(F)(F)F)cc1)(c1ccccc1)C(C)C [Compound 33, B-4-(Trifluoromethyl)phenyl Diisopropyl(phenyl)phosphine–Borane]
- chromatographic logP [1, 3]: 6.15
- IC50 [2]: 2010 ± 580 nM
- melting point: 94.8 to 95.2 °C

Structure (SMILES): CCCC[P+]([BH2-]c1ccc(C(F)(F)F)cc1)(CCCC)CCCC [Compound 35, B-4-(Trifluoromethyl)phenyl Tri-n-butylphosphine–Borane]
- chromatographic logP [1, 4]: 7.5
- IC50 [2]: > 10000 nM
- melting point: 33.2 to 33.8 °C

Structure (SMILES): FC(F)(F)c1ccc([BH2-][P+](C2CCCC2)(C2CCCC2)C2CCCC2)cc1 [Compound 36, B-4-(Trifluoromethyl)phenyl Tricyclopentylphosphine–Borane]
- chromatographic logP [1, 4]: 7.95
- IC50 [2]: 2630 ± 720 nM
- melting point: 88 to 88.6 °C

Structure (SMILES): FC(F)(F)c1ccc([BH2-][P+](C2CCCCC2)(C2CCCCC2)C2CCCCC2)cc1 [Compound 37, B-4-(Trifluoromethyl)phenyl Tricyclohexylphosphine–Borane]
- chromatographic logP [1, 4]: 8.97
- IC50 [2]: > 10000 nM
- melting point: 126.7 to 127 °C

Structure (SMILES): FC(F)(F)c1ccc([BH2-][PH+](C2CCCCC2)C2CCCCC2)cc1 [Compound 38, B-4-(Trifluoromethyl)phenyl Dicyclohexylphosphine–Borane]
- chromatographic logP [1, 4]: 7.34
- melting point: 52.7 to 53.7 °C
